Reference: patent publication US20100093794A1, “Use of a Compound in Obtaining Cytoskeleton Blockage and Cell Elongation” (priority 2006, published 2010)
Starred links: 1 amine or outer side, 2 acyl side, 3 side chain; linkers in the order of their positions; H or OH if unused. Positions of bridges follow the written chain, without caps; N, C: chain ends. Non-standard residues stand in square brackets, D forms with d. Residues, ends and D or L forms follow the SMILES beside them. Trp(2-yl) = O=C([C@H](Cc1c([*:3])[nH]c2ccccc12)N[*:1])[*:2]; Leu(4R-OH,5-OH) = C[C@](O)(CO)C[C@H](N)C(=O)O; cisHyp = O=C(O)[C@@H]1C[C@H](O)CN1

Key:
[1] = tested on: A549 lung carcinoma cells; assay: Cytoskeleton staining and confocal microscope: cell elongation; assay type: cell-based, human
Description: (§1) The cells were cultured on coverslips kept in a p60 Petri dish, and the coverslips were kept in a CO2 incubator for 16-20 hours. After being treated with or without PT-262, the cells were fixed in 4% parafomaldehyde solution for 60 minutes at 37° C. Then the coverslips were washed three times with PBS. The F-actin and β-tubulin were stained with 20 U/ml BODIPY FL phallacidin and anti-β-tubulin Cy3 for 30 minutes at 37° C., respectively. Finally, the nuclei were stained with 2.5 ug/ml Hoechst 33258 for 30 minutes. And the cells were added with 80% Glycerin and sealed with nail varnish. The samples were examined under a Leica confocal laser scanning microscope.

Microtubule = assay: Cytoskeleton staining and confocal microscope: microtubule (β-tubulin); assay type: cell-based, human; conditions: for red fluorescence intensity of β-tubulin: A549, 50 nM, 24 hours; for microtubule polymerization: comparison of cytoskeleton inhibitors
Description: as §1

terminal cancer patients = conditions: cited from earlier work
F-actin = assay: Cytoskeleton staining and confocal microscope: actin filament (F-actin); assay type: cell-based, human
Description: as §1

[2] = tested on: human A549 lung carcinoma cells; assay: MTT assay (cytotoxicity); assay type: cell-based
Description: (§2) The A549 cell line was derived from lung carcinoma of a person. The H1299 cell line has a homozygous deletion of the P53 gene that was derived from a non-small cell lung adenocarcinoma tumor. MCF-7 cell line was derived from breast adenocarcinoma of a person. Hela cell line was derived from cervical carcinoma of a person. These cell lines are cultured in RPMI-1640 medium supplemented with 10% fetal bovine serum, 100 units/ml penicillin, 100 ug/ml streptomycin, and L-glutamine (0.03%, w/v), and cells were incubated at 37° C. and 5% CO2.
(§3) Briefly, the cells were plated in 96-well plates at a density of 1×10^4 cells/well for 16-20 hours. Then the cells were treated with pt-262 for 24 hours in serum-free RPMI-1640 medium. After drug treatment, the cells were washed with phosphate-buffered saline (PBS), and were re-cultured in complete RPMI-1640 medium for 48 hours. Subsequently, the medium was replaced and the cells were incubated with 500 ug/ml MTT in complete RPMI-1640 medium for 4 hours. The surviving cells were dissolved in DMSO after removing the MTT medium, and was measured at 565 nm using a ELISA reader.

[3] = tested on: Hela cervical carcinoma cells; assay: MTT assay (cytotoxicity); assay type: cell-based, human
Description: as §2, §3

[4] = tested on: MCF-7 breast carcinoma cells; assay: MTT assay (cytotoxicity); assay type: cell-based, human
Description: as §2, §3

[5] = tested on: A549 lung carcinoma cells; assay: Cell growth assay; assay type: cell-based, human; conditions: 24 hours
Description: as §2
The cells were plated at a density of 5×10^5 cells per p100 Petri dish for 16-20 hours. Then the cells were treated with PT-262 of different concentrations for 24 hours. After drug treatment, the cells were washed with PBS and re-treated with trypsin, the cells were suspended and were counted by a hemocytometer.

[6] = tested on: A549 lung carcinoma cells; assay: Cell cycle analysis (flow cytometer); assay type: cell-based, human; conditions: 24 hours
Description: as §2
(§4) The cells were plated at a density of 1×10^6 cells per p60 dish for 16-20 hours. Then the cells were treated with PT-262 for 24 hours. After drug treatment, the cells were washed with PBS and re-treated with trypsin, the cells were suspended and collected in a 15 ml centrifuge tube. After centrifugation at 1500 rpm for 5 minutes, the cells were fixed with 70% ethanol and stored at −20° C. for at least 2 hours. After being re-centrifuged at 1500 rpm for 5 minutes, the cell pellets were incubated with 4 ug/ml propidium iodine solution containing 1% Triton X-100 and 100 ug/ml RNase A for 30 minutes. The cell cycle was then analyzed by flow cytometer, and the percentage of cell cycle was quantified by ModFit Lt software (Ver. 2.0).

H1299 cells = assay: Cell cycle analysis (flow cytometer); assay type: cell-based; conditions: 24 hours
Description: as §2, §4

Ras = assay: Western blot; assay type: cell-based; conditions: cancer cells; after treatment with PT-262
Description: (§5) At the end of treatment, the cells were lysed in the cell extract buffer containing the protease inhibitors. Amounts of proteins in samples were subjected to electrophoresis using 10-12 sodium dodecyl sulfate-polyacrylamide gels. After electrophoretic transfer of proteins onto polyvinylidene difluoride (PVDF) membranes, the membranes were dipped in 5% degreased milk containing first antibody for 24 hours at 4° C. After being washed three times with TTBS buffer solution for 5-15 minutes at room temperature, the PVDF membranes are dipped in 5% degreased milk containing second antibody for 1-2 hours at room temperature. And then the membranes were re-washed three times with TTBS buffer solution for 5-15 minutes at room temperature. Finally, the protein bands were visualized using the enhanced chemiluminescence detection system.

caspase-3 = assay: Western blot; assay type: cell-based; conditions: cancer cells
Description: as §5

cyclin B1 = assay: Western blot; assay type: cell-based; conditions: cancer cells; 5-20 uM, 24 hours
Description: as §5

phospho-ERK = assay: Western blot; assay type: cell-based; conditions: cancer cells; after treatment with PT-262
Description: as §5

phospho-cdc2 = assay: Western blot; assay type: cell-based; conditions: cancer cells; 5-20 uM, 24 hours
Description: as §5

[7] = tested on: A549 lung carcinoma cells; assay: Mitochondrial membrane potential (DiOC6, flow cytometer); assay type: cell-based, human; conditions: as the drug concentration increased, 24 hours
Description: The cells were cultured in 60-mm Petri dish at a density of 5×10^5 cells. Then the cells were treated with PT-262 of different concentrations for 24 hours. After drug treatment, the cells were washed with PBS and were trypsinized, the cells were suspended and were counted by a hemocytometer. The cells were collected by centrifugation, and the pellets were resuspended in 70% ethanol and stored at […]20° C. for at least 2 hours. After centrifugation, the pelts were incubated with 0.5 uM DiOC6 for 30 minutes. Then cell pellets were collected by centrifugation and resuspended in 0.5 ml ice-cold PBS. Finally, fluorescence intensities of DiOC6 were analyzed on a flow cytometer.

[8] = lung carcinoma cells, comparison of cytoskeleton inhibitors
[9] = comparison of cytoskeleton inhibitors
[10] = Homo sapiens, treatment for 24 hours, at cell viability of 50%

Question: For `CC(=O)O[C@H]1C(=O)[C@@]2(C)[C@H]([C@H](OC(=O)c3ccccc3)[C@]3(O)C[C@H](OC(=O)[C@H](O)[C@@H](NC(=O)c4ccccc4)c4ccccc4)C(C)=C1C3(C)C)[C@]1(OC(C)=O)CO[C@@H]1C[C@@H]2O` [paclitaxel], which cell elongation [1, 8] is on record?
Answer: didn't induce

Question: And the “red fluorescence intensity of β-tubulin” value (Microtubule)?
Answer: increased

Question: And the microtubule polymerization (Microtubule)?
Answer: induced

Question: What about the suppression rate (terminal cancer patients; 40 terminal cancer patients) of the same compound?
Answer: 30%

Question: What about the “patients reduced in tumor size by over 50%” value (terminal cancer patients; of 40 terminal cancer patients) of the same compound?
Answer: 12

Question: For `C=C1[C@@H](C)[C@H]2[C@H](Cc3ccccc3)NC(=O)[C@]23OC(=O)/C=C/[C@H](O)CCC[C@@H](C)C/C=C/[C@H]3[C@@H]1O` [cytochalasin B, reference compound], which cell elongation [1, 8] is on record?
Answer: didn't induce

Question: What about the actin polymerization (F-actin; [9]) of the same compound?
Answer: prevented

Question: With `O=C1C(N2CCCCC2)=C(Cl)C(=O)c2ncccc21` [PT-262, 7-chloro-6-piperidin-1-yl-quinoline-5,8-dione] as the compound, how does the cell survival ratio ([2]; 1-10 uM, 24 hours) read?
Answer: decreased as the concentration increased

Question: What about the IC50 [2, 10] of the same compound?
Answer: 2 to 4 µM

Question: What about the cell survival ratio ([3]; 1-10 uM, 24 hours) of the same compound?
Answer: decreased as the concentration increased

Question: And the IC50 [3, 10]?
Answer: 2 to 4 µM

Question: What about the cell survival ratio ([4]; 1-10 uM, 24 hours) of the same compound?
Answer: decreased as the concentration increased

Question: And the IC50 ([4]; Homo sapiens, MCF7, treatment for 24 hours, at cell viability of 50%)?
Answer: 2 to 4 µM

Question: And the growth arrest ([5]; 10 uM)?
Answer: almost completely induced

Question: What about the cell growth ([5]; 5-10 uM) of the same compound?
Answer: concentration-dependently inhibited

Question: What about the G0/G1 fractions [6] of the same compound?
Answer: decreased

Question: What about the G2/M fractions [6] of the same compound?
Answer: increased

Question: And the G0/G1 fractions (H1299 cells)?
Answer: decreased

Question: And the G2/M fractions (H1299 cells)?
Answer: increased

Question: What about the “expression level of Ras” value (Ras) of the same compound?
Answer: decreased

Question: And the caspase-3 activation (caspase-3)?
Answer: noticeably induced

Question: What about the “levels of cyclin B1 protein” value (cyclin B1) of the same compound?
Answer: noticeably decreased

Question: What about the “expression level of phospho-ERK” value (phospho-ERK) of the same compound?
Answer: decreased

Question: What about the “levels of phospho-cdc2 protein” value (phospho-cdc2) of the same compound?
Answer: noticeably decreased

Question: And the Mitochondrial membrane potential [7]?
Answer: noticeably inhibited

Question: And the cell elongation ([1]; A549, 2 uM)?
Answer: induced

Question: And the “cell length of some cells” value ([1]; A549, Leica confocal software)?
Answer: 160 um

Question: And the average cell length ([1]; A549, untreated 39.2 um, Leica confocal software)?
Answer: 65.3 um

Question: What about the cell elongation [1, 8] of the same compound?
Answer: increased

Question: And the F-actin polymerization (F-actin; A549, 2 uM)?
Answer: induced

Question: What about the actin polymerization (F-actin; [9]) of the same compound?
Answer: induction

Question: Which cell elongation [1, 8] does the source give for `COc1cc2c(c(OC)c1OC)-c1ccc(OC)c(=O)cc1[C@@H](NC(C)=O)CC2` [colchichine] here?
Answer: didn't induce

Question: What about the “red fluorescence intensity of β-tubulin” value (Microtubule) of the same compound?
Answer: reduced

Question: What about the microtubule polymerization (Microtubule) of the same compound?
Answer: inhibiting

Question: Which results are given for `C[C@@H]1NC(=O)[C@H](C[C@@](C)(O)CO)NC(=O)[C@@H]2Cc3c([nH]c4ccccc34)SC[C@H](NC(=O)[C@@H]([C@H](C)O)NC1=O)C(=O)N1C[C@@H](O)C[C@H]1C(=O)N[C@@H](C)C(=O)N2` [phalloidin] (cyclo(A[dT]C[cisHyp]A[Trp(2-yl)][Leu(4R-OH,5-OH)]); thioether 3-6)?
Answer: cell elongation ([1]; A549, 24 hours): caused the cell elongation; green fluorescence intensity of F-actin (F-actin; A549, 24 hours): increased; actin depolymerization (F-actin; [9]): inhibit
